One experiment addresses Phospholipase A2 (Homo sapiens, UniProt P04054). Nature of the experiment: Inhibition of recombinant human secretory phospholipase A2 (sPLA2), chromogenic screening assay.
A short description of experiment [1]: Inhibitory activity against recombinant human secretory phospholipase A2 (s-PLA2) by phosphatidylcholine/deoxycholate assay (PC/DOC).

Molecules are shown by their SMILES.

The values that follow come from BindingDB's records for doi:10.1021/jm960395q (Shionogi, 1996).

Sequence of Phospholipase A2 (P04054 whole entry): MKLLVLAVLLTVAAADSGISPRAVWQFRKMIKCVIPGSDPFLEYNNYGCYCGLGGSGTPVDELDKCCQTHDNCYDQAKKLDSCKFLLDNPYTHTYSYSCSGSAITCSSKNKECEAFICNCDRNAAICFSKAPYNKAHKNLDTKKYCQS

On to `CCc1c(C(=O)C(N)=O)c2c(OCC(=O)O)cccn2c1Cc1cccc(Cl)c1` [[1-Aminooxalyl-3-(3-chloro-benzyl)-2-ethyl-indolizin-8-yloxy]-acetic acid], for which the values for the 50% inhibitory concentration (IC50) (on Phospholipase A2; in experiment [1]) were 6 nM and 3 nM, respectively.
With `CCCCc1ccc(Cc2c(CC)c(C(=O)C(N)=O)c3c(OCC(=O)O)cccn23)cc1` [[1-Aminooxalyl-3-(4-butyl-benzyl)-2-ethyl-indolizin-8-yloxy]-acetic acid], the figures for the IC50 (on Phospholipase A2; in experiment [1]) were 11 nM and 5 nM, respectively.
Consider `COc1c(C(=O)C(N)=O)c2c(OCC(=O)O)cccn2c1Cc1ccccc1-c1ccccc1` [(1-Aminooxalyl-3-biphenyl-2-ylmethyl-2-methoxy-indolizin-8-yloxy)-acetic acid], for which the IC50 was found to be 15 nM on Phospholipase A2 and 13 nM in experiment [1].
Regarding `CCCC(C)Cc1c(CC)c(C(=O)C(N)=O)c2c(OCC(=O)O)cccn12` (configuration not stated) [[1-Aminooxalyl-2-ethyl-3-(2-methyl-pentyl)-indolizin-8-yloxy]-acetic acid], the IC50 at Phospholipase A2 came to 17 nM; in experiment [1], 78 nM.
As to `CCc1c(C(=O)C(N)=O)c2c(OCC(=O)O)cccn2c1Cc1ccccc1` [(1-Aminooxalyl-3-benzyl-2-ethyl-indolizin-8-yloxy)-acetic acid], the IC50 on Phospholipase A2 came to 8 nM; in experiment [1], 5 nM.
Turning to `Cc1c(C(=O)C(N)=O)c2c(OCC(=O)O)cccn2c1Cc1ccccc1` [(1-Aminooxalyl-3-benzyl-2-methyl-indolizin-8-yloxy)-acetic acid], the IC50 at Phospholipase A2 came out at 8 nM; in experiment [1], 3 nM.
Turning to `CCc1c(C(=O)C(N)=O)c2c(OCC(=O)O)cccn2c1Cc1ccccc1Cc1ccccc1` [[1-Aminooxalyl-3-(2-benzyl-benzyl)-2-ethyl-indolizin-8-yloxy]-acetic acid], the IC50 on Phospholipase A2 came to 6 nM; in experiment [1], 1.3 nM.
As for `CCc1c(C(=O)C(N)=O)c2c(OCC(=O)O)cccn2c1Cc1cccs1` [(1-Aminooxalyl-2-ethyl-3-thiophen-2-ylmethyl-indolizin-8-yloxy)-acetic acid], the half-maximal inhibitory concentration (IC50) on Phospholipase A2 worked out at 11 nM; in experiment [1], 13 nM.
On the same counts, the results for `CCc1c(C(N)=O)c2c(OCC(=O)O)cccn2c1Cc1cccc2ccccc12` [(1-Carbamoyl-2-ethyl-3-naphthalen-1-ylmethyl-indolizin-8-yloxy)-acetic acid] are 30 nM and 135 nM.
On to `COC(=O)COc1cccn2c(CC3CCCCC3)c(C3CC3)c(C(=O)C(N)=O)c12` [(1-Aminooxalyl-3-cyclohexylmethyl-2-cyclopropyl-indolizin-8-yloxy)-acetic acid methyl ester], for which the IC50 at Phospholipase A2 came to 43 nM; in experiment [1] it was 160 nM.
Consider `Cc1c(C(=O)C(N)=O)c2c(OCC(=O)O)cccn2c1CC1CCCC1` [(1-Aminooxalyl-3-cyclopentylmethyl-2-methyl-indolizin-8-yloxy)-acetic acid], for which the results for the IC50 (at Phospholipase A2; in experiment [1]) were 14 nM and 22 nM, respectively.
In the case of `COC(=O)COc1cccn2c(Cc3cccc4ccccc34)c(C3CC3)c(C(=O)C(N)=O)c12` [(1-Aminooxalyl-2-cyclopropyl-3-naphthalen-1-ylmethyl-indolizin-8-yloxy)-acetic acid methyl ester], the half-maximal inhibitory concentration (IC50) at Phospholipase A2 was 23 nM; in experiment [1], 200 nM.
As for `NC(=O)C(=O)c1c(C2CC2)c(Cc2ccccc2)n2cccc(OCC(=O)O)c12` [(1-Aminooxalyl-3-benzyl-2-cyclopropyl-indolizin-8-yloxy)-acetic acid], the IC50 on Phospholipase A2 is 46 nM; in experiment [1], 49 nM.
On the same counts, the results for `CCc1c(C(=O)C(N)=O)c2c(OCC(=O)OC)cccn2c1Cc1cccc(-c2ccccc2)c1` [(1-Aminooxalyl-3-biphenyl-3-ylmethyl-2-ethyl-indolizin-8-yloxy)-acetic acid methyl ester] are 9 nM and 4.2 nM.
Take `COC(=O)COc1cccn2c(Cc3ccccc3-c3ccccc3)c(C)c(C(=O)C(N)=O)c12` [(1-Aminooxalyl-3-biphenyl-2-ylmethyl-2-methyl-indolizin-8-yloxy)-acetic acid methyl ester]: the values for the half-maximal inhibitory concentration (IC50) (at Phospholipase A2; in experiment [1]) were 8 nM and 1.4 nM, respectively.
Take `CCc1c(CC(N)=O)c2c(OCC(=O)O)cccn2c1Cc1cccc(Cl)c1` [[1-Carbamoylmethyl-3-(3-chloro-benzyl)-2-ethyl-indolizin-8-yloxy]-acetic acid]: the figures for the half-maximal inhibitory concentration (IC50) (at Phospholipase A2; in experiment [1]) were 15 nM and 52 nM, respectively.
`NC(=O)C(=O)c1c(C2CC2)c(CC2CCCC2)n2cccc(OCC(=O)O)c12` [(1-Aminooxalyl-3-cyclopentylmethyl-2-cyclopropyl-indolizin-8-yloxy)-acetic acid]: the IC50 on Phospholipase A2 was found to be 29 nM; in experiment [1], 88 nM.
On to `CCCCC[C@H]1CCCC(Cc2c(CC)c(C(=O)C(N)=O)c3c(OCC(=O)O)cccn23)C1` (stereo partly drawn) [[1-Aminooxalyl-2-ethyl-3-((S)-3-pentyl-cyclohexylmethyl)-indolizin-8-yloxy]-acetic acid], for which the figures for the IC50 (on Phospholipase A2; in experiment [1]) were 25 nM and 20 nM, respectively.
Take `NC(=O)C(=O)c1c(C2CC2)c(Cc2ccccc2-c2ccccc2)n2cccc(OCC(=O)O)c12` [(1-Aminooxalyl-3-biphenyl-2-ylmethyl-2-cyclopropyl-indolizin-8-yloxy)-acetic acid]: the IC50 at Phospholipase A2 amounted to 9 nM; in experiment [1], 6 nM.
On the same counts, the results for `CCc1c(CC(N)=O)c2c(OCC(=O)O)cccn2c1Cc1ccccc1-c1ccccc1` [(3-Biphenyl-2-ylmethyl-1-carbamoylmethyl-2-ethyl-indolizin-8-yloxy)-acetic acid] are 14 nM and 14 nM.
On the same counts, the results for `CCc1c(C(=O)C(N)=O)c2c(OCC(=O)O)cccn2c1Cc1cccc2ccccc12` [(1-Aminooxalyl-2-ethyl-3-naphthalen-1-ylmethyl-indolizin-8-yloxy)-acetic acid] are 5 nM and 24 nM.
On the same counts, the results for `NC(=O)Cc1c(C2CC2)c(Cc2ccccc2-c2ccccc2)n2cccc(OCC(=O)O)c12` [(3-Biphenyl-2-ylmethyl-1-carbamoylmethyl-2-cyclopropyl-indolizin-8-yloxy)-acetic acid] are 13 nM and 26 nM.
For the compound `CCc1c(C(=O)C(N)=O)c2c(OCC(=O)O)cccn2c1Cc1cccc(OC)c1` [[1-Aminooxalyl-2-ethyl-3-(3-methoxy-benzyl)-indolizin-8-yloxy]-acetic acid], the results for the IC50 (on Phospholipase A2; in experiment [1]) were 21 nM and 30 nM, respectively.
On the same counts, the results for `CCc1c(C(=O)C(N)=O)c2c(OCC(=O)O)cccn2c1CC1CCCCCC1` [(1-Aminooxalyl-3-cycloheptylmethyl-2-ethyl-indolizin-8-yloxy)-acetic acid] are 23 nM and 100 nM.
As for `CCc1c(CC(N)=O)c2c(OCC(O)CC)cccn2c1Cc1cccc(Cl)c1` (configuration not stated) [2-[3-(3-Chloro-benzyl)-2-ethyl-8-(2-hydroxy-butoxy)-indolizin-1-yl]-acetamide], the IC50 on Phospholipase A2 is 19000 nM.
On the same count and under the same terms, next, `CCc1c(C(=O)C(N)=O)c2c(OCC(=O)OC)cccn2c1CCc1ccccc1` [(1-Aminooxalyl-2-ethyl-3-phenethyl-indolizin-8-yloxy)-acetic acid methyl ester]: 51 nM; `CCc1c(Cc2ccccc2)c2ccc(OCCCC(=O)O)cn2c1C(=O)C(N)=O` [4-(3-Aminooxalyl-1-benzyl-2-ethyl-indolizin-6-yloxy)-butyric acid]: 1100 nM.
On to `CCc1c(C(=O)C(N)=O)c2c(OCCC(=O)O)cccn2c1Cc1ccccc1-c1ccccc1` [3-(1-Aminooxalyl-3-biphenyl-2-ylmethyl-2-ethyl-indolizin-8-yloxy)-propionic acid], for which the IC50 at Phospholipase A2 amounted to 44 nM; in experiment [1] it was 130 nM.
As to `CCc1c(C(=O)C(N)=O)c2c(OCC(=O)O)cccn2c1Cc1cccc(C(F)(F)F)c1` [[1-Aminooxalyl-2-ethyl-3-(3-trifluoromethyl-benzyl)-indolizin-8-yloxy]-acetic acid], the IC50 was found to be 9 nM on Phospholipase A2 and 3 nM in experiment [1].
With `CCc1c(C(=O)C(N)=O)c2c(OCCCC(=O)O)cccn2c1Cc1ccccc1` [4-(1-Aminooxalyl-3-benzyl-2-ethyl-indolizin-8-yloxy)-butyric acid], the IC50 on Phospholipase A2 came out at 200 nM.
In the case of `CCc1c(C(=O)C(N)=O)c2c(OCC(=O)O)cccn2c1CC1CCCCC1` [(1-Aminooxalyl-3-cyclohexylmethyl-2-ethyl-indolizin-8-yloxy)-acetic acid], the IC50 turned out to be 21 nM on Phospholipase A2 and 30 nM in experiment [1].
With `Cc1c(C(=O)C(N)=O)c2c(OCC(=O)O)cccn2c1CC12C[C@H]3C[C@@H](C1)C[C@@H](C2)C3` [(3-Adamantan-1-ylmethyl-1-aminooxalyl-2-methyl-indolizin-8-yloxy)-acetic acid], at Phospholipase A2, the IC50 came out at 120 nM.
With `CCc1c(CC(N)=O)c2c(OCC(=O)O)cccn2c1Cc1ccccc1` [(3-Benzyl-1-carbamoylmethyl-2-ethyl-indolizin-8-yloxy)-acetic acid], the results for the IC50 (on Phospholipase A2; in experiment [1]) were 13 nM and 28 nM, respectively.
For `CCCCCc1c(CC)c(C(=O)C(N)=O)c2c(OCC(=O)O)cccn12` [(1-Aminooxalyl-2-ethyl-3-pentyl-indolizin-8-yloxy)-acetic acid], the half-maximal inhibitory concentration (IC50) at Phospholipase A2 came out at 62 nM.
The same measure, in the same setting: for `CCc1c(CC(N)=O)c2c(OCCCC(=O)O)cccn2c1Cc1ccccc1-c1ccccc1` [4-(3-Biphenyl-2-ylmethyl-1-carbamoylmethyl-2-ethyl-indolizin-8-yloxy)-butyric acid] the value was 80 nM.
Turning to `CCc1c(C(=O)C(N)=O)c2c(OCC(=O)OC)cccn2c1C/C=C/c1ccccc1` [[1-Aminooxalyl-2-ethyl-3-((E)-3-phenyl-allyl)-indolizin-8-yloxy]-acetic acid methyl ester], the results for the IC50 (at Phospholipase A2; in experiment [1]) were 38 nM and 80 nM, respectively.
Consider `CCc1c(C(=O)C(N)=O)c2c(OCC(=O)O)cccn2c1Cc1ccccc1[N+](=O)[O-]` [[1-Aminooxalyl-2-ethyl-3-(2-nitro-benzyl)-indolizin-8-yloxy]-acetic acid], for which the figures for the half-maximal inhibitory concentration (IC50) (at Phospholipase A2; in experiment [1]) were 36 nM and 120 nM, respectively.

As usually defined, the IC50 is the point on the concentration scale where inhibition reaches its midpoint.
